In patent US11051515B2, “3-acyl-benzamides and their use as herbicides” (Bayer Aktiengesellschaft, priority 2017, dated 2021):

Columns and labels:
VIOTR [1] = test: Pre-emergence action against VIOTR; format: in vivo, Viola tricolor; conditions: Dosage 320 g/ha, pre-emergence
Method in brief: (§1)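 Seeds sown in sandy loam in wood-fiber pots and covered with soil. Greenhouse growth; visual damage scored after 3 weeks versus untreated controls (100% = dead, 0% = like control).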

ALOMY = test: Pre-emergence action against ALOMY; format: in vivo, Alopecurus myosuroides; conditions: dosage 320 g/ha; pre-emergence; scored visually after 3 weeks vs untreated controls; 100% = plants have died, 0% = like control plants
Method in brief: as §1

AMARE [2] = test: Pre-emergence action against AMARE; format: in vivo, Amaranthus retroflexus; conditions: pre-emergence, dosage 320 g/ha, scored visually after 3 weeks vs untreated controls
Method in brief: as §1

PHBPU [3] = test: Post-emergence action against PHBPU; format: in vivo, Pharbitis purpurea; conditions: post-emergence, dosage 80 g/ha
Method in brief: (§2)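 Weeds grown in sandy loam in greenhouse, treated at one-leaf stage (2–3 weeks after sowing) with WP or EC formulations sprayed as aqueous suspension/emulsion at 600 to […] water with 0.2% wetting agent. Visual rating after about 3 weeks versus untreated controls, as % herbicidal action (100% = plants dead, 0% = like control).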

SETVI [4] = test: Post-emergence action against SETVI; format: in vivo, Setaria viridis; conditions: post-emergence, dosage 80 g/ha, visual assessment about 3 weeks after treatment vs untreated controls
Description: (§3) Seeds of monocotyledonous and dicotyledonous weed and crop plants are laid out in sandy loam soil in wood-fiber pots, covered with soil and cultivated in a greenhouse under good growth conditions. 2 to 3 weeks after sowing, the test plants are treated at the one-leaf stage. The compounds of the invention, formulated in the form of wettable powders (WP) or as emulsion concentrates (EC), are then sprayed onto the green parts of the plants in the form of an aqueous suspension or emulsion at a water application rate equating to […], with addition of 0.2% wetting agent. After the test plants have been left to stand in the greenhouse under optimal growth conditions for about 3 weeks, the action of the preparations is assessed visually in comparison to untreated controls (herbicidal action in percent (%): 100% activity=the plants have died, 0% activity=like control plants). […] At the same time, inventive compounds leave Gramineae crops such as barley, wheat, rye, millet/Sorghum, corn or rice virtually undamaged when applied post-emergence, even at high active ingredient dosages. In addition, some substances are also harmless to dicotyledonous crops such as soya, cotton, oilseed rape, sugar beet or potatoes. Some of the compounds according to the invention have high selectivity and are therefore suitable for controlling unwanted vegetation in agricultural crops by the post-emergence method. The data of Tables B18 to B34 below illustrate, in an exemplary manner, the […] herbicidal action of the compounds according to the invention, the herbicidal activity being stated in percent.

MATIN [5] = test: Pre-emergence action against MATIN; format: in vivo, Matricaria inodora; conditions: Dosage 320 g/ha, pre-emergence
Method in brief: as §1

ECHCG [6] = test: Pre-emergence action against ECHCG; format: in vivo, Echinochloa crus-galli; conditions: pre-emergence, dosage 320 g/ha, scored visually after 3 weeks vs untreated controls
Method in brief: as §1

MATIN [7] = test: Post-emergence action against MATIN; format: in vivo, Matricaria inodora; conditions: post-emergence, dosage 80 g/ha, visual assessment about 3 weeks after treatment vs untreated controls
Method in brief: as §2

AMARE [8] = test: Post-emergence action against AMARE; format: in vivo, Amaranthus retroflexus; conditions: post-emergence, dosage 80 g/ha, visual assessment about 3 weeks after treatment vs untreated controls
Method in brief: as §2

POLCO [9] = test: Post-emergence action against POLCO; format: in vivo, Polygonum convolvulus; conditions: post-emergence, dosage 80 g/ha
Description: as §3

ABUTH [10] = test: Post-emergence action against ABUTH; format: in vivo, Abutilon theophrasti; conditions: post-emergence, dosage 80 g/ha, visual assessment about 3 weeks after treatment vs untreated controls
Method in brief: as §2

ECHCG [11] = test: Post-emergence action against ECHCG; format: in vivo, Echinochloa crus-galli; conditions: post-emergence, dosage 80 g/ha, visual assessment about 3 weeks after treatment vs untreated controls
Method in brief: as §2

AVEFA = test: Pre-emergence action against AVEFA; format: in vivo, Avena fatua; conditions: dosage 320 g/ha, scored visually after 3 weeks vs untreated controls
Description: (§4) Seeds of monocotyledonous and dicotyledonous weed plants and crop plants are laid out in sandy loam soil in wood-fiber pots and covered with soil. The compounds of the invention, formulated in the form of wettable powders (WP) or as emulsion concentrates (EC), are then applied to the surface of the covering soil in the form of an aqueous suspension or emulsion at a water application rate equating to […], with addition of 0.2% wetting agent. After the treatment, the pots are placed in a greenhouse and kept under good growth conditions for the trial plants. The damage to the test plants is scored visually after a test period of 3 weeks by comparison with untreated controls (herbicidal activity in percent (%): 100% activity=the plants have died, 0% activity=like control plants).

VERPE [12] = test: Post-emergence action against VERPE; format: in vivo, Veronica persica; conditions: dosage 80 g/ha
Method in brief: as §2

ABUTH [13] = test: Pre-emergence action against ABUTH; format: in vivo, Abutilon theophrasti; conditions: pre-emergence, dosage 320 g/ha, scored visually after 3 weeks vs untreated controls
Method in brief: as §1

PHBPU [14] = test: Pre-emergence action against PHBPU; format: in vivo, Pharbitis purpurea; conditions: Dosage 320 g/ha, pre-emergence
Description: as §4

VERPE [15] = test: Pre-emergence action against VERPE; format: in vivo, Veronica persica; conditions: Dosage 320 g/ha, pre-emergence
Method in brief: as §1

CYPES [16] = test: Pre-emergence action against CYPES; format: in vivo, Cyperus esculentus; conditions: pre-emergence, dosage 320 g/ha, scored visually after 3 weeks vs untreated controls
Description: as §4

STEME [17] = test: Pre-emergence action against STEME; format: in vivo, Stellaria media; conditions: Dosage 320 g/ha, pre-emergence
Method in brief: as §1

SETVI [18] = test: Pre-emergence action against SETVI; format: in vivo, Setaria viridis; conditions: pre-emergence, dosage 320 g/ha, scored visually after 3 weeks vs untreated controls
Method in brief: as §1

VIOTR [19] = test: Post-emergence action against VIOTR; format: in vivo, Viola tricolor; conditions: post-emergence, dosage 80 g/ha
Method in brief: as §2

STEME [20] = test: Post-emergence action against STEME; format: in vivo, Stellaria media; conditions: post-emergence, dosage 80 g/ha
Method in brief: as §2

CYPES [21] = test: Post-emergence action against CYPES; format: in vivo, Cyperus esculentus; conditions: post-emergence, dosage 80 g/ha, visual assessment about 3 weeks after treatment vs untreated controls
Description: as §3

POLCO [22] = test: Pre-emergence action against POLCO; format: in vivo, Polygonum convolvulus; conditions: Dosage 320 g/ha, pre-emergence
Description: as §4

| Structure (SMILES) | Pre-emergence action against VIOTR (VIOTR [1]) | Pre-emergence action against ALOMY (herbicidal activity in percent) (ALOMY) | Pre-emergence action against AMARE (herbicidal activity) (AMARE [2]) | Post-emergence action against PHBPU (PHBPU [3]) | Post-emergence action against SETVI (herbicidal action in percent) (SETVI [4]) | Pre-emergence action against MATIN (MATIN [5]) | Pre-emergence action against ECHCG (herbicidal activity) (ECHCG [6]) | Post-emergence action against MATIN (herbicidal action in percent) (MATIN [7]) | Post-emergence action against AMARE (herbicidal action in percent) (AMARE [8]) | Post-emergence action against ABUTH (herbicidal action in percent) (ABUTH [10]) | Post-emergence action against ECHCG (herbicidal action in percent) (ECHCG [11]) | Pre-emergence action against AVEFA (herbicidal activity) (AVEFA) | Post-emergence action against VERPE (VERPE [12]) | Pre-emergence action against ABUTH (herbicidal activity) (ABUTH [13]) | Pre-emergence action against PHBPU (PHBPU [14]) | Pre-emergence action against VERPE (VERPE [15]) | Pre-emergence action against CYPES (herbicidal activity) (CYPES [16]) | Pre-emergence action against STEME (STEME [17]) | Post-emergence action against VIOTR (VIOTR [19]) | Post-emergence action against STEME (STEME [20]) | other results |
| --- | --- | --- | --- | --- | --- | --- | --- | --- | --- | --- | --- | --- | --- | --- | --- | --- | --- | --- | --- | --- | --- |
| CCCn1nnnc1NC(=O)c1ccc(C(F)(F)F)c(C(C)=O)c1Cl [3-137] | 100% | 90% | 100% | 100 | 100% | 100% | 100% | 100% | 100% | 90% | 90% | 80% | 90 | 100% | 100% | 90% | 90% | 100% | 100 | 100 | Post-emergence action against POLCO (POLCO [9]): 90; SETVI (Table B8, pre-emergence herbicidal activity) (SETVI [18]): 90% |
| CCCn1nnnc1NC(=O)c1ccc(C(F)(F)F)c(C(=O)C2CC2)c1Br [3-197] | 100% | 90% | 100% | 100 | 90% | 100% | 100% | 90% | 100% | 90% | 90% | 90% | 80 | 100% | 90% | 100% | 80% | 100% | 100 | 100 | Post-emergence action against CYPES (herbicidal action in percent) (CYPES [21]): 90%; SETVI (Table B8, pre-emergence herbicidal activity) (SETVI [18]): 100% |
| CCCn1nnnc1NC(=O)c1ccc(C(F)(F)F)c(C(=O)C2CC2)c1OC [3-50] | 100% | 100% | 100% | 100 | 100% | 100% |  | 100% | 100% | 100% | 100% | 100% | 100 | 100% | 80% | 100% | 90% | 100% | 100 | 100 | Post-emergence action against CYPES (herbicidal action in percent) (CYPES [21]): 80%; SETVI (Table B8, pre-emergence herbicidal activity) (SETVI [18]): 100% |
| CCCn1nnnc1NC(=O)c1ccc(I)c(C(C)=O)c1Cl [3-192] | 100% | 90% | 100% | 80 | 100% | 100% | 100% | 100% | 80% | 100% | 100% | 90% |  | 100% | 100% |  | 100% | 100% | 100 | 100 | Post-emergence action against CYPES (herbicidal action in percent) (CYPES [21]): 80%; SETVI (Table B8, pre-emergence herbicidal activity) (SETVI [18]): 100% |
| CCCn1nnnc1NC(=O)c1ccc(C(F)(F)F)c(C(C)=O)c1SC [3-58] | 100% | 90% | 100% | 90 | 80% | 100% | 100% | 100% | 100% | 100% | 100% | 80% | 80 | 100% |  | 90% | 90% | 90% | 100 | 100 | Pre-emergence action against POLCO (POLCO [22]): 80%; Post-emergence action against CYPES (herbicidal action in percent) (CYPES [21]): 100% |
| CCn1nnnc1NC(=O)c1ccc(C)c(C(C)=O)c1Cl [2-134] |  |  | 100% | 80 | 80% | 90% | 80% | 90% | 90% |  | 90% |  | 90 |  |  | 100% |  | 90% | 100 | 100 | Post-emergence action against POLCO (POLCO [9]): 80 |
